The term Ki denotes a measure of affinity in units of concentration, obtained from inhibition or displacement.

Results on 23 compounds are retold here after patent US12336991B2, “Factor XIIA inhibitors” (UNIVERSITY OF LEEDS, priority 2018, dated 2025).

Common to all, as to type: biochemical
The target of test [1] is T1, FXIIa (Homo sapiens, UniProt P00748).
T1 sequence (P00748 373-615 limits assumed): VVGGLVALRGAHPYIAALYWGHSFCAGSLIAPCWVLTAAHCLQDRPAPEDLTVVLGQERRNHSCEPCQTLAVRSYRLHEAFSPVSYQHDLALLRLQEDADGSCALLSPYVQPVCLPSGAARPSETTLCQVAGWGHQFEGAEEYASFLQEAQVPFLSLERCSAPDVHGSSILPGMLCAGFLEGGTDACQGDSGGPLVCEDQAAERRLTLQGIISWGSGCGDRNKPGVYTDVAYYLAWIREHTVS
T1 sequence (P00748 20-372 partner limits assumed): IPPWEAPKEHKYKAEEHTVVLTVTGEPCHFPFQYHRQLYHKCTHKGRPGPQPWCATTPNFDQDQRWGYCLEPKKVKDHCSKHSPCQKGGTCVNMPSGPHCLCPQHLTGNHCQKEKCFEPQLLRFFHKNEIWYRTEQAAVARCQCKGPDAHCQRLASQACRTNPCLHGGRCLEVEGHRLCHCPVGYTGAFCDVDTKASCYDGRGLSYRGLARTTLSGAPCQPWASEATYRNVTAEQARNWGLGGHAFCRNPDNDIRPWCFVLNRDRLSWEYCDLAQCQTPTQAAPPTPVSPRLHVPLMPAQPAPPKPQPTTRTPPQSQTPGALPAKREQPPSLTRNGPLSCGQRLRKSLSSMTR
Description: Determination of Factor XIIa inhibition, chromogenic substrate S-2302 assay. As to conditions: human FXIIa alpha. The procedure, abridged:
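FXIIa (10 nM) preincubated with compound 10 min at 37° C. in 50 mM Tris, 137 mM NaCl pH 7.4, 5% DMSO, top concentration 500 μM, then S-2302 added ([…]). Absorbance at 405 nm read kinetically for 3 h; IC50 from initial rates, converted to Ki by Cheng-Prusoff.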

Test [2] deals with FXa (Homo sapiens, UniProt P00742). Briefly: Determination of selectivity: FXa inhibition, chromogenic substrate S2765 assay. Particulars: fold selectivity for FXIIa over FXa. The method in brief:
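Human FXa (5 nM) preincubated with compound (top 500 μM, 5% DMSO) 10 min at 37 °C in 50 mM Tris, 137 mM NaCl pH 7.4, then S2765 ([…]) added; A405 kinetics over 3 h at 37 °C. IC50 from initial rates, converted to Ki via Cheng-Prusoff.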

Test [3] deals with T2, thrombin (Homo sapiens, UniProt P00734).
T2 construct: FXa (5 nM) and thrombin (5 nM)
Description: Determination of selectivity: thrombin inhibition, chromogenic substrate GPR assay. As to conditions: fold selectivity for FXIIa over thrombin. The method in brief: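 Thrombin (5 nM) preincubated with compound 10 min at 37 °C in 50 mM Tris, 137 mM NaCl, pH 7.4, 5% DMSO, then GPR substrate ([…]) added. Absorbance at 405 nm read kinetically for 3 h; IC50 from initial rates, converted to Ki via Ki=IC50/(1+[S]/Km).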

FXa, sequence (P00742 235-488 limits assumed): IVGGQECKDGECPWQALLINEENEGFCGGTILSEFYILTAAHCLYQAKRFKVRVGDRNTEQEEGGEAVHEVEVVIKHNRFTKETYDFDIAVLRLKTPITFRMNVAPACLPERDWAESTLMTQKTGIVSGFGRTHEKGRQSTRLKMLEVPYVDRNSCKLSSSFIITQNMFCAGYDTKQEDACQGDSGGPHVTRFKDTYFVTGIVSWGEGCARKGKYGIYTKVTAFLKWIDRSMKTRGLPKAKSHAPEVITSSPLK
FXa, sequence (P00742 41-179 partner limits assumed): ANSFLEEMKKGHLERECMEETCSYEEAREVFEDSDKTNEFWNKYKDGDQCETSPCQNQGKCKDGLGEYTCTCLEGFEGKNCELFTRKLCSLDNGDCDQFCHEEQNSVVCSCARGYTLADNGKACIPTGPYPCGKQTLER

Consider `NCc1ccc(CNC(=O)[C@@H]2C[C@@H](Cc3ccc(Cl)cc3)CN2C(=O)[C@H](N)CCc2ccccc2)cc1` [Example M05117], for which, in test [1], the Ki fell in the range of 0.2 to 2 µM. For the same compound, the “FXa (human)/FXIIa alpha (human)” value in test [2] is on record as “∘∘∘”. Also, the “Thrombin (human)/FXIIa alpha (human)” value in test [3] is recorded as “++ (fold selectivity value of 10 to 100)”.
For `Cn1ccnc1CC1C[C@@H](C(=O)NCc2ccc3c(c2)nnn3C)N(C(=O)[C@H](N)CCC(=O)N2CCCC2)C1` (stereo partly drawn) [Example M05297], in that order: 0.2 to 2 µM, “∘∘∘” and “+++ (fold selectivity values greater than 100)”.
Taken in the same sequence, the figures for `COc1ccc(C[C@@H]2C[C@@H](C(=O)NCc3ccc4c(c3)nnn4C)N(C(=O)[C@H](N)CCC(=O)N3CCNC(=O)C3)C2)cc1` [Example M05451] were below 0.2 µM, “∘∘∘” and “+++ (fold selectivity values greater than 100)”.
In test [1], `COc1ccc(C[C@@H]2C[C@@H](C(=O)NCc3ccc4c(Cl)nn(C)c4c3)N(C(=O)[C@H](N)CCC(=O)N3CCCC3)C2)cc1` [Example M05449] registered a Ki below 0.2 µM. Besides, the “FXa (human)/FXIIa alpha (human)” value in test [2] is given as “∘∘∘”. Further, the “Thrombin (human)/FXIIa alpha (human)” value in test [3] was “+++ (fold selectivity values greater than 100)”.
For `N[C@H](CCc1ccccc1)C(=O)N1CCC[C@H]1C(=O)NCc1ccc2nccn2c1` [Example M05021], in that order: above 2 µM, “∘∘” and “+ (fold selectivity values less than 10)”.
Taken in the same sequence, the figures for `Cn1nccc1-c1cccc(C[C@@H]2C[C@@H](C(=O)NCc3ccc4c(c3)nnn4C)N(C(=O)[C@H](N)CCC(=O)N3CCCC3)C2)c1` [Example M05350, (2S,4R)-1-((R)-2-Amino-5-oxo-5-pyrrolidin-1-yl-pentanoyl)-4-[3-(2-methyl-2H-pyrazol-3-yl)-benzyl]-pyrrolidine-2-carboxylic acid (1-methyl-1H-benzotriazol-5-ylmethyl)-amide] were 0.2 to 2 µM, “∘∘∘” and “+++ (fold selectivity values greater than 100)”.
Taken in the same sequence, the figures for `Cn1nc(Cl)c2cc(CNC(=O)[C@@H]3C[C@@H](Cc4ccncc4)CN3C(=O)[C@H](N)CCC(=O)N3CCCC3)ccc21` [Example M05241] were below 0.2 µM, “∘∘∘” and “++ (fold selectivity value of 10 to 100)”.
Compound `Cn1nnc2cc(CNC(=O)[C@@H]3C[C@@H](c4ccccc4)CN3C(=O)[C@H](N)CCc3ccccc3)ccc21` [Example M05119, (2S,4S)-1-((R)-2-Amino-4-phenyl-butyryl)-4-phenyl-pyrrolidine-2-carboxylic acid (1-methyl-1H-benzotriazol-5-ylmethyl)-amide] came in with a Ki in test [1] above 2 µM. Moreover, the “FXa (human)/FXIIa alpha (human)” value in test [2] is listed as “∘∘”. Besides, the “Thrombin (human)/FXIIa alpha (human)” value in test [3] was “++ (fold selectivity value of 10 to 100)”.
In turn, `Cn1nnc2cc(CNC(=O)[C@@H]3C[C@H](C(F)(F)F)CN3C(=O)[C@H](N)CCc3ccccc3)ccc21` [Example M05102] displayed a Ki in test [1] above 2 µM. The “FXa (human)/FXIIa alpha (human)” value in test [2] is listed as “∘∘”. For the same compound, the “Thrombin (human)/FXIIa alpha (human)” value in test [3] is listed as “++ (fold selectivity value of 10 to 100)”.
`Cn1nnc2cc(CNC(=O)[C@@H]3C[C@@H](Cc4ccc(F)c(F)c4)CN3C(=O)C3C[C@@H](c4ccccc4)CN3)ccc21` (stereo partly drawn) [Example M05325] gave a Ki in test [1] above 2 µM. Besides, the “FXa (human)/FXIIa alpha (human)” value in test [2] is recorded as “∘∘”. Also, the “Thrombin (human)/FXIIa alpha (human)” value in test [3] is “++ (fold selectivity value of 10 to 100)”.
For `COc1cc(CNC(=O)[C@@H]2C[C@@H](C)CN2C(=O)[C@H](N)CCc2ccccc2)ccc1CN` [Example M05074], in that order: 0.2 to 2 µM, “∘∘∘” and “+ (fold selectivity values less than 10)”.
With `Cn1nnc2cc(CNC(=O)[C@@H]3C[C@H](N4CCN(Cc5ccccc5)CC4)CN3C(=O)[C@H](N)CCc3ccccc3)ccc21` [Example M05200, (2S,4S)-1-((R)-2-Amino-4-phenyl-butyryl)-4-(4-benzyl-piperazin-1-yl)-pyrrolidine-2-carboxylic acid (1-methyl-1H-benzotriazol-5-ylmethyl)-amide], the Ki in test [1] is above 2 µM. Moreover, the “FXa (human)/FXIIa alpha (human)” value in test [2] is listed as “∘∘”. Moreover, in test [3], the “Thrombin (human)/FXIIa alpha (human)” value is on record as “++ (fold selectivity value of 10 to 100)”.
Take `Cn1nnc2cc(CNC(=O)[C@@H]3C[C@@](O)(c4ccccc4)CN3C(=O)[C@H](N)CCc3ccccc3)ccc21` [Example M05126]: in test [1], the Ki was above 2 µM. Also, in test [2], the “FXa (human)/FXIIa alpha (human)” value was “∘∘”. The “Thrombin (human)/FXIIa alpha (human)” value in test [3] was “++ (fold selectivity value of 10 to 100)”.
In turn, `COc1ccc(C[C@@H]2C[C@@H](C(=O)NCc3cc4cnccc4o3)N(C(=O)[C@H](N)CCC(=O)N3CCCC3)C2)cc1` [Example M05404] showed a Ki in test [1] below 0.2 µM. In addition, the “FXa (human)/FXIIa alpha (human)” value in test [2] was “∘∘∘”. Besides, the “Thrombin (human)/FXIIa alpha (human)” value in test [3] was “+++ (fold selectivity values greater than 100)”.
For `COc1cc(CNC(=O)[C@@H]2C[C@H](C)CN2C(=O)[C@H](N)CCc2ccccc2)ccc1CN` [Example M05073], in that order: 0.2 to 2 µM, “∘∘” and “+ (fold selectivity values less than 10)”.
Taken in the same sequence, the figures for `Cn1nnc2cc(CNC(=O)[C@@H]3C[C@@H](Cc4ccc(Br)cc4)CN3C(=O)[C@H]3C[C@@H](c4ccccc4)CN3)ccc21` [Example M05342] were 0.2 to 2 µM, “∘∘∘” and “++ (fold selectivity value of 10 to 100)”.
For `Cn1nnc2cc(CNC(=O)[C@@H]3C[C@H](NCCc4ccccc4)CN3C(=O)[C@H](N)CCc3ccccc3)ccc21` [Example M05205], in that order: above 2 µM, “∘∘” and “++ (fold selectivity value of 10 to 100)”.
Turning to `COc1ccc(C[C@@H]2C[C@@H](C(=O)NCc3ccc4c(c3)nnn4C)N(C(=O)[C@H](N)CCc3ccc(F)cc3)C2)cc1` [Example M00949], in test [1], the Ki lay in the range of 0.2 to 2 µM. The “FXa (human)/FXIIa alpha (human)” value in test [2] is “∘∘”. In addition, the “Thrombin (human)/FXIIa alpha (human)” value in test [3] is “+++ (fold selectivity values greater than 100)”.
For `Nc1cc(CNC(=O)[C@@H]2C[C@@](O)(c3ccccc3)CN2C(=O)[C@H](N)CCc2ccccc2)ccn1` [Example M05125], in that order: 0.2 to 2 µM, “∘∘” and “++ (fold selectivity value of 10 to 100)”.
Taken in the same sequence, the figures for `COc1ccc(C[C@@H]2C[C@@H](C(=O)NCc3ccc4c(c3)nnn4C)N(C(=O)[C@H](N)CCC(=O)N3C(C)CCC3C)C2)cc1` (stereo partly drawn) [Example M05399] were below 0.2 µM, “∘∘∘” and “+++ (fold selectivity values greater than 100)”.
`COc1ccc(C[C@@H]2C[C@@H](C(=O)NCc3ccc4c(c3)nnn4C)N(C(=O)[C@H](N)CCC(=O)N3CCNC[C@@H]3C)C2)cc1` [Example M05417, (2S,4R)-1-[(R)-2-amino-5-((S)-2-methyl-piperazin-1-yl)-5-oxo-pentanoyl]-4-(4-methoxy-benzyl)-pyrrolidine-2-carboxylic acid (1-methyl-1H-benzotriazol-5-ylmethyl)-amide] yielded a Ki in test [1] of 0.2 to 2 µM. For the same compound, the “FXa (human)/FXIIa alpha (human)” value in test [2] is given as “∘∘∘”. Moreover, the “Thrombin (human)/FXIIa alpha (human)” value in test [3] is on record as “+++ (fold selectivity values greater than 100)”.
The compound `CNC(=O)N[C@H]1C[C@@H](C(=O)NCc2ccc3c(c2)nnn3C)N(C(=O)[C@H](N)CCc2ccccc2)C1` [Example M05208] came in with a Ki in test [1] above 2 µM. The “FXa (human)/FXIIa alpha (human)” value in test [2] is given as “∘∘”. The “Thrombin (human)/FXIIa alpha (human)” value in test [3] was “++ (fold selectivity value of 10 to 100)”.
In test [1], `COc1ccc(C[C@@H]2C[C@@H](C(=O)NCc3ccc4c(c3)nnn4C)N(C(=O)[C@H]3C[C@@H](c4ccncc4)CN3)C2)cc1` [Example M05353] had a Ki above 2 µM. The “FXa (human)/FXIIa alpha (human)” value in test [2] was “∘∘”. In test [3], the “Thrombin (human)/FXIIa alpha (human)” value is given as “++ (fold selectivity value of 10 to 100)”.
